Where “and” joins values, the source holds several entries; their conditions need not be identical. Identical values can stand only once. Like-named read-outs stand apart in the source and are kept apart here. Marks after values point to notes of the source that are not given here.
Legend:
Format in all cases: biochemical
[1] = target: T1, HIV-1 RT wild type (HXB2) (Human immunodeficiency virus type 1 group M subtype B, UniProt P04585); conditions: for Fold resistance in RT-assay relative to HXB2: wild type HXB2 RT (reference); for Ki / Ki/Km: wild type HXB2 RT
T1 construct: The final RT products, in a heterodimeric form (p66/p51); made in house; host or cells: E. coli XL1-Blue (vector pKK233-2)

[2] = target: HIV-1 RT mutant 41/215 (Human immunodeficiency virus type 1 group M subtype B, UniProt P04585, M628L/T802Y); experiment: RT inhibition assay (Lenti RT, polyrA/oligo(dT), BrdUTP); conditions: 41/215 RT
[3] = target: T2, HIV-1 RT mutant 41/184/215 (Human immunodeficiency virus type 1 group M subtype B, UniProt P04585, M628L/M771V/T802Y); conditions: 41/184/215 RT
T2 construct: The final RT products, in a heterodimeric form (p66/p51); made in house; host or cells: E. coli XL1-Blue (vector pKK233-2)

[4] = target: T3, HIV-1 RT mutant 41/67/70/215 (Human immunodeficiency virus type 1 group M subtype B, UniProt P04585, D654N/K657R/M628L/T802Y); conditions: 41/67/70/215 RT
T3 construct: The final RT products, in a heterodimeric form (p66/p51); made in house; host or cells: E. coli XL1-Blue (vector pKK233-2)

[5] = target: T4, HIV-1 RT mutant 41/67/70/184/215 (Human immunodeficiency virus type 1 group M subtype B, UniProt P04585, D654N/K657R/M628L/M771V/T802Y); conditions: 41/67/70/184/215 RT
T4 construct: The final RT products, in a heterodimeric form (p66/p51); made in house; host or cells: E. coli XL1-Blue (vector pKK233-2)

[6] = target: T5, HIV-1 RT mutant 41/67/70/184/210/211/214/215 (Human immunodeficiency virus type 1 group M subtype B, UniProt P04585, D654N/K657R/L797W/L801F/M628L/M771V/R798K/T802Y); conditions: 41/67/70/184/210/211/214/215 RT
T5 construct: The final RT products, in a heterodimeric form (p66/p51); made in house; host or cells: E. coli XL1-Blue (vector pKK233-2)

[7] = target: T6, HIV-1 RT mutant 69S-SS (Human immunodeficiency virus type 1 group M subtype B, UniProt P04585, INS655SS/T656S); conditions: 69S-SS RT
T6 construct: The final RT products, in a heterodimeric form (p66/p51); made in house; host or cells: E. coli XL1-Blue (vector pKK233-2)

[8] = target: T7, HIV-1 RT mutant 41/69S-SS/215 (Human immunodeficiency virus type 1 group M subtype B, UniProt P04585, INS655SS/M628L/T656S/T802Y); conditions: 41/69S-SS/215 RT
T7 construct: The final RT products, in a heterodimeric form (p66/p51); made in house; host or cells: E. coli XL1-Blue (vector pKK233-2)

[9] = target: T8, HIV-1 RT mutant 69S-SG (Human immunodeficiency virus type 1 group M subtype B, UniProt P04585, INS655SS/T656G/T656S); conditions: 69S-SG RT
T8 construct: The final RT products, in a heterodimeric form (p66/p51); made in house; host or cells: E. coli XL1-Blue (vector pKK233-2)

[10] = target: T9, HIV-1 RT mutant 69S-AG (Human immunodeficiency virus type 1 group M subtype B, UniProt P04585, INS655SA/T656G/T656S); conditions: 69S-AG RT
T9 construct: The final RT products, in a heterodimeric form (p66/p51); made in house; host or cells: E. coli XL1-Blue (vector pKK233-2)

[11] = no extra additions (without ATP)
[12] = nontreated pyrophosphatase ATP 3.2 mM (control), single experiment
[13] = pyrophosphatase treated ATP 3.2 mM, single experiment

Substance: AZT-TP
- Fold resistance in RT-assay relative to HXB2 ([1]; ATP 3.2 mM): 1.0 fold
- Fold resistance in RT-assay relative to HXB2 ([1]; without ATP): 1.0 fold
- Ki ([1]; ATP 3.2 mM): 10 nM
- Ki/Km ([1]; ATP 3.2 mM): 0.032
- Ki ([1]; ATP 3.2 mM + PPi 150 μM): 59 nM
- Ki/Km ([1]; ATP 3.2 mM + PPi 150 μM): 0.11
- Ki ([1]; ATP 6.0 mM): 40 nM
- Ki/Km ([1]; ATP 6.0 mM): 0.049
- Ki ([1]; ATP […]): 4.8 nM
- Ki/Km ([1]; ATP […]): 0.02
- Ki ([1]; GTP 0.5 mM): 9 nM
- Ki/Km ([1]; GTP 0.5 mM): 0.028
- Ki ([1]; PPi 150 μM): 26 nM
- Ki/Km ([1]; PPi 150 μM): 0.087
- Ki [1, 11]: 5.8 nM
- Ki/Km [1, 11]: 0.034
- Fold resistance in RT-assay relative to HXB2 ([2]; ATP 3.2 mM): 3 fold and 2.9 fold
- Ki ([2]; ATP 3.2 mM): 34 nM
- Ki/Km ([2]; ATP 3.2 mM): 0.094
- level of resistance in RT assay relative to wild type ([2]; GTP 0.5 mM): 1.2–1.3 fold
- level of resistance in RT assay relative to wild type ([2]; PPi 150 μM): 1.1 fold
- Fold resistance in RT-assay relative to HXB2 ([2]; without ATP): 0.8 fold
- Ki ([2]; without ATP): 3 nM
- Ki/Km ([2]; without ATP): 0.027
- Fold resistance in RT-assay relative to HXB2 ([3]; ATP 3.2 mM): 5.9 fold
- Ki/Km ([3]; ATP 3.2 mM): 0.19
- Fold resistance in RT-assay relative to HXB2 ([3]; without ATP): 1.3 fold
- Ki ([3]; without ATP): 2.2 nM
- Ki/Km ([3]; without ATP): 0.045
- Fold resistance in RT-assay relative to HXB2 ([4]; ATP 3.2 mM): 16.6 fold and 16.6 (+/−0.3) fold
- Ki ([4]; ATP 3.2 mM): 39 nM
- Ki/Km ([4]; ATP 3.2 mM): 0.53
- Fold resistance in RT-assay relative to HXB2 ([4]; ATP 3.2 mM + PPi 150 μM): 12.6 fold and 12.6 (+/−3) fold
- Ki ([4]; ATP 3.2 mM + PPi 150 μM): 280 nM
- Ki/Km ([4]; ATP 3.2 mM + PPi 150 μM): 1.39
- Fold resistance in RT-assay relative to HXB2 ([4]; ATP 6.0 mM): 15.9 (+/−4) fold
- Ki ([4]; ATP 6.0 mM): 176 nM
- Ki/Km ([4]; ATP 6.0 mM): 0.78
- Ki ([4]; ATP […]): 6.4 nM
- Ki/Km ([4]; ATP […]): 0.1
- Fold resistance in RT-assay relative to HXB2 ([4]; GTP 0.5 mM): 1.2 (+/−0.03) fold
- Ki ([4]; GTP 0.5 mM): 4 nM
- Ki/Km ([4]; GTP 0.5 mM): 0.034
- Fold resistance in RT-assay relative to HXB2 ([4]; PPi 150 μM): 10.5 fold and 10.5 (+/−3) fold
- Ki ([4]; PPi 150 μM): 83 nM
- Ki/Km ([4]; PPi 150 μM): 0.92
- Fold resistance in RT-assay relative to HXB2 [4, 11]: 0.9 fold and 0.9 (+/−0.1) fold
- Ki/Km [4, 11]: 0.03
- Ki [4, 12]: 20 nM
- Ki/Km [4, 12]: 0.46*
- Ki [4, 13]: 16 nM
- Ki/Km [4, 13]: 0.42*
- Fold resistance in RT-assay relative to HXB2 ([5]; ATP 3.2 mM): 4.1 fold
- Ki ([5]; ATP 3.2 mM): 50 nM
- Ki/Km ([5]; ATP 3.2 mM): 0.13
- Fold resistance in RT-assay relative to HXB2 ([5]; without ATP): 0.3 fold
- Ki ([5]; without ATP): 0.6 nM
- Ki/Km ([5]; without ATP): 0.01
- Fold resistance in RT-assay relative to HXB2 ([6]; ATP 3.2 mM): 2.8 fold
- Ki ([6]; ATP 3.2 mM): 52 nM
- Ki/Km ([6]; ATP 3.2 mM): 0.09
- Fold resistance in RT-assay relative to HXB2 ([6]; without ATP): 0.3 fold
- Ki ([6]; without ATP): 1.3 nM
- Ki/Km ([6]; without ATP): 0.011
- Fold resistance in RT-assay relative to HXB2 ([7]; ATP 3.2 mM): 3.0 fold
- Ki ([7]; ATP 3.2 mM): 21 nM
- Ki/Km ([7]; ATP 3.2 mM): 0.095
- Fold resistance in RT-assay relative to HXB2 ([7]; without ATP): 0.8 fold
- Ki ([7]; without ATP): 1.7 nM
- Ki/Km ([7]; without ATP): 0.026
- Fold resistance in RT-assay relative to HXB2 ([8]; ATP 3.2 mM): 20 fold and 19.7 fold
- Ki ([8]; ATP 3.2 mM): 133 nM
- Ki/Km ([8]; ATP 3.2 mM): 0.63
- Fold resistance in RT-assay relative to HXB2 ([8]; without ATP): 0.9 fold
- Ki ([8]; without ATP): 1.4 nM
- Ki/Km ([8]; without ATP): 0.031
- Fold resistance in RT-assay relative to HXB2 ([9]; ATP 3.2 mM): 8.4 fold
- Ki ([9]; ATP 3.2 mM): 96 nM
- Ki/Km ([9]; ATP 3.2 mM): 0.27
- Fold resistance in RT-assay relative to HXB2 ([9]; without ATP): 1.1 fold
- Ki ([9]; without ATP): 3.8 nM
- Ki/Km ([9]; without ATP): 0.038
- Fold resistance in RT-assay relative to HXB2 ([10]; ATP 3.2 mM): 14.0 fold
- Ki ([10]; ATP 3.2 mM): 125 nM
- Ki/Km ([10]; ATP 3.2 mM): 0.45
- level of resistance in RT assay relative to wild type ([10]; GTP 0.5 mM): 1.2–1.3 fold
- level of resistance in RT assay relative to wild type ([10]; PPi 150 μM): 3.3
- Fold resistance in RT-assay relative to HXB2 ([10]; without ATP): 1.9 fold
- Ki ([10]; without ATP): 6.4 nM
- Ki/Km ([10]; without ATP): 0.064
